Data as given in patent publication US6495331B1, “Regulation of cytokine production in a hematopoietic cell” (National Jewish Center for Immunology and Respiratory …, priority 1996, dated 2002).

Columns and labels:
Format in all cases: cell-based, mouse
p38 MAP kinase = p38 MAP kinase immunoprecipitation kinase assay (ATF-2 substrate) in OVA-stimulated sensitized MC/9 cells
Protocol: MC/9 cells sensitized with OVA-IgE were incubated in the presence of PBS (O min) or 10 μg/ml OVA for 1, 5, 15, 30, or 60 min. To immunoprecipitate p38 kinase, 3×10^6 cells were lysed by vigorous mixing in 0.4 ml of extraction buffer (1% Triton X-100, 10 mM Tris-HCl (pH 7.4), 5 mM EDTA, 50 mM NaCl, 50 mM […], 0.1% bovine serum albumin (BSA), 20 μg/ml aprotinin, 1 mM PMSF, and 2 mM Na3VO4). The lysate was incubated with the rabbit anti-serum raised against the COOH-terminal peptide sequence of p38 (1:400 dilution) for 2 h at 4° C. Recombinant protein G sepharose 4 B was added to the lysate and incubated for an additional 1 h at 4° C. The immunoprecipitates were washed once with extraction buffer, twice with PAN buffer (10 mM piperazine-N, N′-bis (2-ethanesulfonic acid) (PIPES, pH 7.0), 100 mM NaCl, 20 μg/ml aprotinin). […] The kinase activity was quantified with a PhosphorImager (Molecular Dynamics, Sunnyvale, Calif.).
MC/9 cells sensitized with OVA-IgE (3×10^6) were preincubated with either 1-1000 nM wortmannin or a control (0.01% DMSO) for 15 min and stimulated for 5 min by addition of 10 μg/ml OVA. […] The data are expressed as the percentage of p38 activity detected in the presence of 10 μg/ml OVA and 0.01% DMSO (*, p<0.05).

human TNF-α promoter = assay: TNF-α promoter luciferase reporter pTNF(-1311)Luc in MC/9 cells stimulated by FcεRI aggregation
Protocol: The pXP1 plasmid containing full length of the human TNF-α promoter just upstream of the luciferase gene, designated pTNF(-1311)Luc, was provided by Dr. James S. Economou (Division of Surgical Oncology, UCLA School of Medicine, Los Angels, Calif.). pTNF(-1311)Luc was transfected into MC/9 by the DEAE-dextran method. 2×10^6 cells were washed once with 1×TBS (25 mM Tris, 137 mM NaCl, 5 mM KCl, 0.5 mM Na2HPO4, 0.49 MM MgCl2, 0.68 mM CaCl21 pH 7.5). Cells were suspended with 0.4 ml of 500 μg DEAE-dextran/4 μgDNA mixture and incubated at room temperature for 30 min. After washed with 1×TBS, cells were suspended with 10 ml of culture medium and plated on culture dish. […]
Luciferase activity was measured to measure TNF-α promoter activity. […] 30 μl of the lysate was mixed with the same volume of Luciferase Assay Substrate containing beetle luciferin as a substrate (Promega, Madison Wis.), and chemiluminescence was measured for 30 sec as relative light units by a luminometer (Monolight 2010, Analytical Luminescence Laboratory, San Diego, Calif.).
MC/9 cells transiently transfected by pTNF(-1311)Luc were passively sensitized with OVA-IgE, and incubated for an additional 15 h with 10 μg/ml OVA or PBS in the presence of 0.01% DMSO or 100 nM wortmannin. […] Luciferase activity in cell lysates was measured as relative light units (RLU) and standardized by control RLU (mean±S.D., N=4, p<0.01). […]

TNF-α production = TNF-α production by OVA-stimulated sensitized MC/9 cells, ELISA; conditions: then 10 μg/ml OVA 3 h
Protocol: An ELISA for TNF-α production was performed as follows. Purified rat anti-mouse TNF-α monoclonal antibody was diluted to 2 μg/ml in coating solution (0.1 M NaHCO3, pH 8.2) and 50 μg was added to wells of an ELISA plate (Dynatech Laboratories). […] After washing twice, standards (16 pg/ml −4 ng/ml recombinant mouse TNF-α) and samples were added at 100 μl per well and incubated overnight at 4° C. After washing four times, biotinylated rabbit anti-mouse TNF-α polyclonal antibody (1 μg/ml) was added to wells and incubated at room temperature for 45 min and wells were washed six times. […] ABTS (2,2′-Azino-bis(3-ethylbenzthiazoline-6-sulfonic acid) substrate (30 mg/ml 0.1 M citric acid, pH 4.35) containing 0.03% H2O2 was added at 100 μl per well and color reaction was allowed to develop at room temperature for 30 min. A plate was read at OD 410 nm and analyzed by Mycroplate Manager (Bio Rad, Hercules, Calif.).
MC/9 cells (1×10^6/ml) were incubated with 500 ng/ml mouse monoclonal IgE specific for OVA (OVA-IgE) for 2 h. […] After the incubation, the cell supernatant was harvested and TNF-α production was measured by ELISA.
The effect of wortmannin on TNF-α production in MC/9 cells was also examined. […] TNF-α in the medium was measured by ELISA.
MC/9 cells sensitized with OVA-IgE (1×10^6/ml) were incubated with 0.1% DMSO or 30 μM PD 098059 for 1 h. […] TNF-α in the medium was measured by ELISA.

JNK = JNK activity (GST-c-Jun kinase assay) in OVA-stimulated OVA-IgE-sensitized MC/9 cells
Protocol: MC/9 cells (5×10^6/ml) were cultured with 500 ng/ml anti-OVA IgE for 2 h. The cells were washed with medium three times and cultured with fresh medium for an additional 2 h. OVA dissolved in PBS or anti-IgE was added for the stimulation, and PBS was used as a control vehicle.
The activity of JNK was measured by monitoring the activity of a Glutathione S-transferase-c-Jun-(1-79) fusion protein. Cells (3×10^6) were lysed in a buffer (20 MM Tris-HCl, pH 7.6, 250 mM NaCl, 3 mM EDTA, 3 mM EGTA, 0.5% NP-40, 2 mM Na3VO4, 1 mM dithiothreitol (DTT), 1 mM phenylmethylsulfonyl fluoride (PMSF), 20 μg/ml aprotinin, 5 μg/ml leupeptin). The lysates were mixed with GST-c-Jun-Sepharose beads and rotated at 4° C. for 3 h. The beads were washed twice in lysis buffer and once in kinase assay buffer (20 mM Hepes, pH 7.5, 20 mM β-glycerophosphate, 10 mM MgCl2, 1 mM DTT, 50 mM Na3VO4, 10 mM p-nitrophenyl phosphate). After the final wash, 40 μl of a kinase assay buffer containing 10 μCi of γ-^32P-ATP (ICN Pharmaceuticals, Irvine, Calif.) were added per sample. […] The bands corresponding to GST-c-Jun were cut out of the gel, and radioactivity was determined by liquid scintillation counting. […]

ERK2 [1] = assay: ERK2 phosphorylation by anti-ERK2 immunoblot in MC/9 cells; conditions: PD 098059, MC/9 cells
Protocol: After different treatments, 1×10^6 cells were lysed in buffer (150 mM NaCl, 1% Nonidet P-40, 0.5% deoxycholic acid sodium salt, 0.1% SDS, 50 mM Tris (pH 7.6), 10 μg/ml aprotinin, […] leupeptin, 1 mM phenylmethylsulfonyl fluoride). Samples were electrophoresed on SDS-10% polyacrylamide gels and proteins were transferred to nitrocellulose membranes. Membranes were incubated overnight in blocking buffer containing 1% BSA at 4° C. The monoclonal anti-ERK2 antibody (200 μg/69 μl, Upstate Biotechnology) was added to the blocking buffer (1:1000), and blots were incubated for an additional 1 h at room temperature. The blots were washed in TBST (25 mM Tris (pH 8.0), 125 mM NaCl, 0.025% Tween 20), and specific reactive proteins were detected by an enhanced chemiluminescence method, employing a sheep anti-mouse Ig antibody linked to horseradish peroxidase (Amersham Corp.).
1×10^6 cells were lysed in buffer (150 mM NaCl, 1% NP40, 0.5% deoxycholic acid sodium salt, 0.1% SDS, 50 mM Tris (pH 7.6), 10 μg/ml aprotinin, […] leupeptin, 1 mM PMSF). […] The blots were washed in TBST (25 mM Tris, pH 8.0, […] NaCl, 0.025% Tween 20) and specific reactive proteins were detected by an enhanced chemiluminescence method, employing a sheep anti-mouse Ig antibody linked to horseradish peroxidase (Amersham, Arlington Heights, Ill.).

ERK2 [2] = assay: ERK2 in vitro kinase assay (32P incorporation into myelin basic protein) in OVA-stimulated sensitized MC/9 cells
Protocol: MC/9 cells sensitized with OVA-IgE (1×10^6/ml) were incubated with 0.1% DMSO (control and 0 nM) or 3-30 μM PD 098059 for 1 h and the reaction was stopped by centrifugation at 5 min after the stimulation. The cells were then incubated with 10 μg/ml OVA or PBS (control) for 5 min. Kinase activity of ERK2 was measured as ^32P incorporation into myelin basic protein (MBP).
In vitro kinase assay of ERK2 was carried out as described above with some minor modifications. 3×10^6 cells were lysed by vigorous mixing in 0.4 ml of lysis buffer (20 mM Tris-HCl (pH 8.0), 1% Triton X-100, 10% glycerol, 137 mM NaCl, 1.5 mM MgCl2, 1 mM EGTA, 50 mM NaF, 1 mM Na3VO4, 1 mM PMSF, 5 μg/ml leupeptin, and 10 μg/ml aprotinin). The lysate was incubated with anti-ERK2 antibody (2 μg/ml) for 2 hrs at 4° C. Recombinant protein G sepharose 4B was added to the lysate and incubated for an additional 1 hr at 4° C. The immune complexes were washed three times with lysis buffer, and once with kinase buffer (30 mM Tris-HCl (pH 8.0), 20 mM MgCl2, 2 mM MnCl2). For the in vitro kinase assay, the immune complex suspension was incubated with 9 μg myelin basic protein (MBP) and 10 μCi of [γ-^32P] ATP in kinase buffer in a final volume of 30 μl for 30 min at 30° C. […] The bands corresponding to MBP were cut out of the gel, and radioactivity was determined by liquid scintillation counting.

Structure (SMILES) | decrease in p38 kinase activities (p38 MAP kinase; 100 nM-1 μM wortmannin, 15 min, then 10 μg/ml OVA 5 min) | decrease in OVA-induced luciferase activity (TNF-α promoter) (human TNF-α promoter; 100 nM wortmannin, 10 μg/ml OVA 15 h) | decrease in TNF-α production (TNF-α production; 100 nM wortmannin, 15 min) | JNK kinase activity, percentage of that observed in the absence of treatment (JNK; 100 nM wortmannin, 15 min preincubation, 10 μg/ml OVA 10 min, MC/9 cells) | effect on ERK2 phosphorylation induced by aggregation of FcεRI (ERK2 [1]) | decrease in OVA-induced ERK2 activity (ERK2 [2]; 30 μM PD 098059, 1 h, then 10 μg/ml OVA 5 min) | effect on ERK2 activities (ERK2 [2]; 10-30 μM PD 098059, MC/9 cells) | effect on p38 activation (p38 MAP kinase; PD 098059, data not shown) | effect on OVA-induced luciferase activity (TNF-α promoter) (human TNF-α promoter; 30 μM PD 098059, 10 μg/ml OVA 15 h) | effect on TNF-α production (TNF-α production; 30 μM PD 098059, 1 h) | effect on JNK activation (JNK; PD 098059, data not shown)
COC[C@H]1OC(=O)c2coc3c2[C@@]1(C)C1=C(C3=O)[C@@H]2CCC(=O)[C@@]2(C)C[C@H]1OC(C)=O [wortmannin] | 50-60% | 40% | 77% | 8% |  |  |  |  |  |  | 
COc1cccc(-c2cc(=O)c3ccccc3o2)c1N [PD 098059] |  |  |  |  | strongly inhibited | 65% | significantly inhibited | did not inhibit | enhanced OVA-induced luciferase activity | did not affect TNF-α production | did not inhibit
